Source: publication PMC6095626, “Screening of the Pathogen Box for inhibitors with dual efficacy against Giardia lamblia and Cryptosporidium parvum” (PLoS Neglected Tropical Diseases, 2018)

Tests used:
[1] = tested on: C. parvum (UGA1 Nluc expressing strain in HCT-8 cells); experiment: microbe, parasite or virus in culture; type: cell-based, Cryptosporidium parvum; conditions: for Crypto (10 uM) Mean % inhibition: initial Pathogen Box screen, single concentration 10 µM, inhibition compared to DMSO wells
How it was run: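 Parasite growth quantified by NanoLuc luminescence from lysed infected HCT-8 cells, with EC50 fitted from dose curves. Compounds, single-dose 10 μM or serially diluted, were added to confluent 48 h monolayers before infection with bleached UGA1 Nluc oocysts.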

[2] = tested on: G. lamblia trophozoites (luciferase expressing, WBC6); experiment: microbe, parasite or virus in culture; type: cell-based, Giardia lamblia; conditions: for Giardia (16 uM) Mean % inhibition: initial Pathogen Box screen, single concentration 16 µM, inhibition compared to DMSO wells
How it was run: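 Incubation ran 24 h at 37 °C under anaerobic conditions, with compound added in equal volume to trophozoites (WBC6, luciferase-expressing, 250,000 cells/mL). Bioluminescence was the read-out, cross-checked by MOXI Z counts on a duplicate plate; metronidazole served as control (1:2 dilutions from 40 μM).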

## CCN(CC)S(=O)(=O)c1ccc(C(=O)Nc2cc(C)nn2-c2nc(C)c(C)c(=O)[nH]2)cc1 [MMV595321]
[1]
  Crypto (10 uM) Mean % inhibition: 92%
[2]
  Giardia (16 uM) Mean % inhibition: 26%

## CCC(Sc1nc2ccccc2o1)C(=O)Nc1nnc(C)s1 (stereo not drawn) [MMV611037]
[1]
  Crypto (10 uM) Mean % inhibition: X* (Mean or standard deviation are negative but not significantly different from the control to be a growth promoter)
[2]
  Giardia (16 uM) Mean % inhibition: 46%

## O=C(NCCN1CCCC1)c1cc(NCCN2CCOCC2)nc2ccc(Cl)cc12 [MMV634140]
[1]
  Crypto (10 uM) Mean % inhibition: X* (Mean or standard deviation are negative but not significantly different from the control to be a growth promoter)
[2]
  Giardia (16 uM) Mean % inhibition: 27%

## Cc1ccc(C(=O)Nc2ccc(S(=O)(=O)O)c3cc(S(=O)(=O)O)cc(S(=O)(=O)O)c23)cc1NC(=O)c1cccc(NC(=O)Nc2cccc(C(=O)Nc3cc(C(=O)Nc4ccc(S(=O)(=O)O)c5cc(S(=O)(=O)O)cc(S(=O)(=O)O)c45)ccc3C)c2)c1 [MMV637953]
[1]
  Crypto (10 uM) Mean % inhibition: 36%
[2]
  Giardia (16 uM) Mean % inhibition: 10%

## O=C(Nc1ccc2c(c1)B(O)OC2)c1ccccc1C(F)(F)F [MMV652003]
[1]
  Crypto (10 uM) Mean % inhibition: 94%
[2]
  Giardia (16 uM) Mean % inhibition: 14%

## Cc1nc(-c2ccccn2)nc(N(C)CCc2ccccc2)c1Cl [MMV658988]
[1]
  Crypto (10 uM) Mean % inhibition: 33%
[2]
  Giardia (16 uM) Mean % inhibition: X* (Mean or standard deviation are negative but not significantly different from the control to be a growth promoter)

## Cc1nc(-c2ccccn2)nc(NCCc2ccc(S(C)(=O)=O)cc2)c1Cl [MMV658993]
[1]
  Crypto (10 uM) Mean % inhibition: X* (Mean or standard deviation are negative but not significantly different from the control to be a growth promoter)
[2]
  Giardia (16 uM) Mean % inhibition: 11%

## Cc1nc(-c2ccccn2)nc(N2CCC(Cc3ccccc3)C2)c1Cl (stereo not drawn) [MMV659004]
[1]
  Crypto (10 uM) Mean % inhibition: 66%
[2]
  Giardia (16 uM) Mean % inhibition: 13%

## FC(F)(F)c1cc(NCCc2ccccc2)nc(-c2ccccn2)n1 [MMV659010]
[1]
  Crypto (10 uM) Mean % inhibition: 15%
[2]
  Giardia (16 uM) Mean % inhibition: 41%

## Brc1cncc(-c2cc(NCCCn3ccnc3)nc(-c3ccccc3)n2)c1 [MMV661713]
[1]
  Crypto (10 uM) Mean % inhibition: X* (Mean or standard deviation are negative but not significantly different from the control to be a growth promoter)
[2]
  Giardia (16 uM) Mean % inhibition: X* (Mean or standard deviation are negative but not significantly different from the control to be a growth promoter)

## Clc1cccc(C(c2ccc(CN3CCNCC3)cc2)n2ccnc2)c1 (stereo not drawn) [MMV663250]
[1]
  Crypto (10 uM) Mean % inhibition: 52%
[2]
  Giardia (16 uM) Mean % inhibition: 14%

## O=C(NCCN1CCCC1)c1cc(NCCCCN2CCC(F)(F)CC2)nc2ccc(Cl)cc12 [MMV667494]
[1]
  Crypto (10 uM) Mean % inhibition: X* (Mean or standard deviation are negative but not significantly different from the control to be a growth promoter)
[2]
  Giardia (16 uM) Mean % inhibition: 82%

## Nc1ncc(-c2ccc(C(F)(F)F)nc2)cc1-c1ccc(C(F)(F)F)nc1 [MMV668727]
[1]
  Crypto (10 uM) Mean % inhibition: 82%
[2]
  Giardia (16 uM) Mean % inhibition: 0.605%

## Cc1[nH]c2cc(F)cc(F)c2c(=O)c1-c1ccc(Oc2ccc(OC(F)(F)F)cc2)cc1 [MMV671636]
[1]
  Crypto (10 uM) Mean % inhibition: X* (Mean or standard deviation are negative but not significantly different from the control to be a growth promoter)
[2]
  Giardia (16 uM) Mean % inhibition: 18%

## COc1ccc(OC)c(NCc2ccc3nc(N)nc(N)c3c2Cl)c1 [MMV675968]
[1]; 10 μM, 48 hours
  C. parvum cell growth inhibition in the initial screen: 88%
[1]; Nluc C. parvum in HCT-8 cells, 48 hours, read-out: C. parvum EC50
  EC50: 2100 nM
[2]; 16 μM, 24 hours
  G. lamblia inhibition of parasite growth in the initial screen: 90%
[2]; luciferase expressing G. lamblia trophozoites, 24 hours, D-luciferin bioluminescence read-out
  G. lamblia EC50: not potent
[2]; luciferase expressing G. lamblia trophozoites, 24 hours, D-luciferin bioluminescence read-out, read-out: G. lamblia EC50
  EC50: > 10000 nM

## CC(C)(C)c1ccc(N[C@@H]2CCCC[C@H]2NC(=O)c2ccco2)cc1 [MMV675969]
[1]
  Crypto (10 uM) Mean % inhibition: X* (Mean or standard deviation are negative but not significantly different from the control to be a growth promoter)
[2]
  Giardia (16 uM) Mean % inhibition: 32%

## COc1ccc(-c2nn(C(C)C)c3ncnc(N)c23)cc1OC [MMV675993]
[1]
  Crypto (10 uM) Mean % inhibition: 89%
[2]
  Giardia (16 uM) Mean % inhibition: X* (Mean or standard deviation are negative but not significantly different from the control to be a growth promoter)

## Clc1ccc(-n2cc(COc3ccnc4ccccc34)nn2)cc1 [MMV675994]
[1]
  Crypto (10 uM) Mean % inhibition: 94%
[2]
  Giardia (16 uM) Mean % inhibition: 15%

## COc1ccc(N(CCc2cccc(C)n2)C(C)=O)cc1 [MMV675995]
[1]
  Crypto (10 uM) Mean % inhibition: 26%
[2]
  Giardia (16 uM) Mean % inhibition: 26%

## COc1ccc(N(CCc2cccc(C)n2)C(=O)C2CCCCC2)cc1 [MMV675996]
[1]
  Crypto (10 uM) Mean % inhibition: X* (Mean or standard deviation are negative but not significantly different from the control to be a growth promoter)
[2]
  Giardia (16 uM) Mean % inhibition: 16%

## N#CCN(CCCCN1CCN(c2ccc(F)cc2)CC1)C(=O)OCc1ccccc1 [MMV675997]
[1]
  Crypto (10 uM) Mean % inhibition: 56%
[2]
  Giardia (16 uM) Mean % inhibition: 29%

## COc1ccc(C(=N)N)cc1-c1cn(-c2ccc(C(=N)N)cc2)nn1 [MMV675998]
[1]
  Crypto (10 uM) Mean % inhibition: X* (Mean or standard deviation are negative but not significantly different from the control to be a growth promoter)
[2]
  Giardia (16 uM) Mean % inhibition: 30%

## O=C(Nc1c(O)cccc1-c1nc2c(C(=O)O)cccc2o1)c1cc(-c2ccccc2)on1 [MMV676008]
[1]
  Crypto (10 uM) Mean % inhibition: X* (Mean or standard deviation are negative but not significantly different from the control to be a growth promoter)
[2]
  Giardia (16 uM) Mean % inhibition: 41%

## Clc1ccc(Cl)c(CO[C@H]2CCCC[C@@H]2n2ccnc2)c1 [MMV676048]
[1]
  Crypto (10 uM) Mean % inhibition: 49%
[2]
  Giardia (16 uM) Mean % inhibition: 37%

## CS(=O)(=O)N1CCC(Cn2nc(Cc3cccc4ccccc34)c3c(N)ncnc32)CC1 [MMV676050]
[1]
  Crypto (10 uM) Mean % inhibition: 79%
[2]
  Giardia (16 uM) Mean % inhibition: 18%

## COc1cc(NC(=O)Cc2nn(C)c(=O)c3ccccc23)ccc1Cl [MMV676053]
[1]
  Crypto (10 uM) Mean % inhibition: 84%
[2]
  Giardia (16 uM) Mean % inhibition: X* (Mean or standard deviation are negative but not significantly different from the control to be a growth promoter)

## CC(C)(C)OC(=O)N1CCN(c2cc(-c3ccc(Oc4ccccc4)cc3)n[nH]2)CC1 [MMV676057]
[1]
  Crypto (10 uM) Mean % inhibition: X* (Mean or standard deviation are negative but not significantly different from the control to be a growth promoter)
[2]
  Giardia (16 uM) Mean % inhibition: 52%

## CCCCc1ccc(NC(=O)Nc2ccc(O[C@H]3CCCC[C@@H]3N(C)c3ccccc3)c(F)c2)cc1 [MMV676063]
[1]
  Crypto (10 uM) Mean % inhibition: 82%
[2]
  Giardia (16 uM) Mean % inhibition: 29%

## CC(=O)N(CCN(C(=O)c1ccc(F)cc1)c1ccccc1)c1ccccc1 [MMV676064]
[1]
  Crypto (10 uM) Mean % inhibition: 28%
[2]
  Giardia (16 uM) Mean % inhibition: 28%

## Clc1cccc(CO[C@H]2CCc3ccccc3[C@@H]2n2ccnn2)c1 [MMV676159]
[1]
  Crypto (10 uM) Mean % inhibition: X* (Mean or standard deviation are negative but not significantly different from the control to be a growth promoter)
[2]
  Giardia (16 uM) Mean % inhibition: 30%

## c1ccc(Oc2ccc(-c3cc(CN4CCOCC4)[nH]n3)cc2)cc1 [MMV676161]
[1]
  Crypto (10 uM) Mean % inhibition: X* (Mean or standard deviation are negative but not significantly different from the control to be a growth promoter)
[2]
  Giardia (16 uM) Mean % inhibition: 33%

## O=C(Nc1ccccc1-c1nc2c(C(=O)O)cccc2o1)c1ccccc1 [MMV676162]
[1]
  Crypto (10 uM) Mean % inhibition: 48%
[2]
  Giardia (16 uM) Mean % inhibition: 1.55%

## Nc1ncnc2c1c(Cc1cccc3ccccc13)nn2CC1CCNCC1 [MMV676182]
[1]
  Crypto (10 uM) Mean % inhibition: 59%
[2]
  Giardia (16 uM) Mean % inhibition: 0.413%

## COC(=O)c1cccc2oc(-c3cccc(OC)c3NC(=O)c3cc(-c4ccccc4)on3)nc12 [MMV676186]
[1]
  Crypto (10 uM) Mean % inhibition: 28%
[2]
  Giardia (16 uM) Mean % inhibition: 19%

## O=C(c1ccc(F)cc1)N(CCNc1ccccc1)c1ccccc1 [MMV676204]
[1]
  Crypto (10 uM) Mean % inhibition: 55%
[2]
  Giardia (16 uM) Mean % inhibition: 28%

## CN1CCN(c2nccc3nc(-c4ccc(F)c(F)c4)[nH]c23)CC1 [MMV676260]
[1]
  Crypto (10 uM) Mean % inhibition: 33%
[2]
  Giardia (16 uM) Mean % inhibition: 29%

## C[C@H](C(N)=O)N1CCCC[C@H]1c1ccc(OCc2cccc(F)c2)cc1 [MMV676269]
[1]
  Crypto (10 uM) Mean % inhibition: 7%
[2]
  Giardia (16 uM) Mean % inhibition: 69%

## C[C@H](C(N)=O)N1CCCC[C@@H]1c1ccc(OCc2cccc(F)c2)cc1 [MMV676270]
[1]
  Crypto (10 uM) Mean % inhibition: 6.67%
[2]
  Giardia (16 uM) Mean % inhibition: 20%

## Cc1c[nH]c(CCNC(=O)c2cc(-c3ccc(Cl)cc3)cs2)n1 [MMV676350]
[1]
  Crypto (10 uM) Mean % inhibition: X* (Mean or standard deviation are negative but not significantly different from the control to be a growth promoter)
[2]
  Giardia (16 uM) Mean % inhibition: 17%
